In ChEMBL document CHEMBL4330083, “Synthesis and evaluation of isoprenylation-resveratrol dimer derivatives against Alzheimer's disease” (Eur J Med Chem, 2019):

Experiments:
[1] = Antioxidant activity assessed as inhibition of DPPH free radical after 30 mins by UV-Visible spectrophotometric analysis; format: functional
[2] = Antioxidant activity assessed as ABTS radical cation scavenging activity by measuring trolox equivalents after 150 mins; format: functional
[3] = target: T1, Amine oxidase [flavin-containing] A (Homo sapiens, UniProt P21397); test: Inhibition of human MAO-A preincubated for 15 mins followed by p-tyramine substrate addition and measured after 20 mins by Amplex red reagent based fluorescence assay
T1 sequence (P21397 whole entry): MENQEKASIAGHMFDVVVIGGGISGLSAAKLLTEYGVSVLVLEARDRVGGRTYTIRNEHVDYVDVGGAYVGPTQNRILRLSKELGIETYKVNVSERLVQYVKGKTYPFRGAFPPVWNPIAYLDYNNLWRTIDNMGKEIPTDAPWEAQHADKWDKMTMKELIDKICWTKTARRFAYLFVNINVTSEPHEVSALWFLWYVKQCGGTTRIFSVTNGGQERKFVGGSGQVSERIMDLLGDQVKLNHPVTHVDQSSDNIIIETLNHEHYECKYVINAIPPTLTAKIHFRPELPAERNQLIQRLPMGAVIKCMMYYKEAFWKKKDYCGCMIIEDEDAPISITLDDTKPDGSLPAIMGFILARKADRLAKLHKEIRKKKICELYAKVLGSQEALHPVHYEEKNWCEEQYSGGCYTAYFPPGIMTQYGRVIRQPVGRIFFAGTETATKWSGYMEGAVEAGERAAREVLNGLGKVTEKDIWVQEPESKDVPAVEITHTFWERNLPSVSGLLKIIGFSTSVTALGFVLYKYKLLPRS

[4] = target: T2, Amine oxidase [flavin-containing] B (Homo sapiens, UniProt P27338)
T2 sequence (P27338 whole entry): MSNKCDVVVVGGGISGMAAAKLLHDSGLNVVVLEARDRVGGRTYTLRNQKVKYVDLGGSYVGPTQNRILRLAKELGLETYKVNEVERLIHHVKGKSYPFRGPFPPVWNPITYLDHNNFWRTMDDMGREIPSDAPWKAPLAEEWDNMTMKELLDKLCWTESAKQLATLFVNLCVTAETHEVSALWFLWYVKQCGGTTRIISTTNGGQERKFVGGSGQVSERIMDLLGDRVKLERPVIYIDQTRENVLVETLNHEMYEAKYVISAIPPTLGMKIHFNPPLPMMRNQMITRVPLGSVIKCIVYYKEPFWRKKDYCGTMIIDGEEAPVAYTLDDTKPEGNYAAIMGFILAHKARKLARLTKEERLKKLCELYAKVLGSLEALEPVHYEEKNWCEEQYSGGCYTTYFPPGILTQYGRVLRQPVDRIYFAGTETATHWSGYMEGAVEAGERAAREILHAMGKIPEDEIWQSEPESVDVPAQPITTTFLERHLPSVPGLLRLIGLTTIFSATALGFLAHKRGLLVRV

Homo sapiens = species on record: Homo sapiens; test: Selectivity ratio of IC50 for human MAO-A to IC50 for human MAO-B
[5] = Antioxidant activity assessed as ferric ion reduction by measuring trolox equivalents after 3 to 5 mins by FRAP assay; format: functional
in vitro = test: in vitro; parameters: dose or concentration left out as unconfirmed; conditions: PAMPA
Description: Effective permeability of the compound at 100 mg/ml incubated for 16 hrs by PAMPA-BBB assay

CC(C)=CCc1c(O)cc([C@@H](Oc2ccc(/C=C/c3cc(O)c4c(c3)OC(C)(C)CC4)cc2)[C@@H](C)c2ccc(O)cc2)cc1O
IC50 [1]: 150 µM
Activity [2]: 0.89 equiv
IC50 [3]: 18.9 µM
IC50 [4]: 9.23 µM
Ratio IC50 (Homo sapiens): 2.05
Activity [5]: 1.26 equiv

Oc1ccc([C@H]2Oc3ccc(/C=C/c4cc(O)cc(O)c4)cc3[C@@H]2c2cc(O)cc(O)c2)cc1
IC50 [1]: 76.8 µM
IC50 [3]: 8.93 µM
IC50 [4]: 2.39 µM
Ratio IC50 (Homo sapiens): 3.74

Oc1ccc(/C=C/c2cc(O)cc(O)c2)cc1 [RESVERATROL]
IC50 [1]: 79.9 µM
Activity [2]: 1.07 equiv
IC50 [4]: 5.01 µM
Activity [5]: 0.98 equiv

C[C@]12CC[C@@H]3c4ccc(O)cc4CC[C@H]3[C@@H]1CC[C@@H]2O [ESTRADIOL]
Papp at 16 h (in vitro): 13.3 ×10⁻⁶ cm/s

CO[C@@H](c1ccc(O)cc1)[C@H](Oc1ccc(/C=C/c2cc(O)c3c(c2)OC(C)(C)CC3)cc1)c1cc(O)c(CC=C(C)C)c(O)c1
IC50 [1]: 185 µM
Activity [2]: 0.29 equiv
IC50 [3]: 10.6 µM
IC50 [4]: 1.9 µM
Ratio IC50 (Homo sapiens): 5.58
Activity [5]: 1.04 equiv

CC(C)=CCc1c(O)cc(/C=C/c2ccc(O)cc2)cc1O [ARACHIDIN-2]
IC50 [1]: 73.3 µM
Activity [2]: 1.23 equiv
IC50 [3]: 11.3 µM
IC50 [4]: 3.62 µM
Ratio IC50 (Homo sapiens): 3.1
Activity [5]: 1.03 equiv

Cc1c(C)c2c(c(C)c1O)CCC(C)(C(=O)O)O2 (stereo not given) [TROLOX]
IC50 [1]: 49.8 µM
Activity [2]: 1 equiv
Activity [5]: 1 equiv
